Values after ≈ are worked out from the molar mass of the structure shown. Active and inactive are the calls of the source. The calls are words filed in the database; no cut-off is given here.
Experiments:
[1] = Cytotoxicity against CHOK1 cells; format: cell-based, Cricetulus griseus; details: chinese hamster, CHO-K1 cells; read-out: ED50 (the source's name)
[2] = test system: Klebsiella pneumoniae; assay: Antimicrobial activity against Klebsiella pneumoniae; format: functional, organism-based
[3] = test system: Human immunodeficiency virus; assay: Antiviral activity against HIV; format: functional, organism-based

| SMILES | CC50 [1] [µg/mL] | Activity [2] | Activity [3] |
| --- | --- | --- | --- |
| CCCC(=O)O[C@H]1[C@@H]2[C@@H]3[C@@H](C[C@H]1C)[C@@H](C)CO[C@@]1(C)CC/C=C(/C)C[C@@H]2O[C@@H]31 | 3.55 (≈ 9.09 µM) | Active | – |
| CC(=O)O[C@H]1[C@@H]2[C@@H]3[C@@H](C[C@H]1C)[C@@H](C)CO[C@@]1(C)CC/C=C(/C)C[C@@H]2O[C@@H]31 | 4.82 (≈ 13.3 µM) | Active | – |
| CCCC(=O)O[C@H]1[C@@H]2[C@@H]3[C@@H](C[C@H]1C)[C@@H](C)CO[C@@]1(C)CC/C=C(\C)C[C@@H]2O[C@@H]31 [4-DEOXYASBESTININ A] | 3.35 (≈ 8.58 µM) | Active | – |
| CC(=O)O[C@H]1[C@@H]2[C@@H]3[C@@H](C[C@H]1C)[C@@H](C)CO[C@@]1(C)CC/C=C(\C)C[C@@H]2O[C@@H]31 [11-ACETOXY-4-DEOXYASBESTININ B] | 2.5 (≈ 6.9 µM) | Active | inactive |

— ChEMBL document CHEMBL1158992, “Application of two-dimensional nmr spectroscopy in the structural determination of marine natural products. Isolation and total structural assignment of 4-deoxyasbestinin diterpenes from the Caribbean gorgonian Briareum asbestinum” (J Nat Prod, 1991)
